According to patent US10513519B2, “Solid forms of (1S,4S)-4-(2-(((3S,4R)-3-fluorotetrahydro-2H-pyran-4-yl)amino)-8-((2,4,6-trichlorophenyl)amino)-9H-purin-9-yl)-1-methylcyclohexane-1-carboxamide and methods of their use” (Signal Pharmaceuticals, LLC, priority 2016, dated 2019):

System: cancer cell lines
Assay: Multiplexed cytotoxicity assay: cell proliferation (relative cell count IC50, GI50)
Assay type: cell-based
Conditions: Homo sapiens
Description: (§1) Cells are grown in RPMI1640, 10% FBS, 2 mM L-alanyl-L-Glutamine, 1 mM Na pyruvate or a special medium in a humidified atmosphere of 5% CO2 at 37° C. Cells are seeded into 384-well plates and incubated in a humidified atmosphere of 5% CO2 at 37° C. Compounds are added 24 h post cell seeding. At the same time, a time zero untreated cell plate is generated. After a 72 hour incubation period, cells are fixed and stained with fluorescently labeled antibodies and nuclear dye to allow visualization of nuclei, apoptotic cells and mitotic cells. Apoptotic cells are detected using an anti-active caspase-3 antibody. Mitotic cells are detected using an anti phospho-histone-3 antibody. Compounds are serially diluted 3.16-fold and assayed over 10 concentrations in a final assay concentration of 0.1% DMSO from the highest test concentration of 10 μM. Automated fluorescence microscopy was carried out using a Molecular Devices ImageXpress Micro XL high-content imager, and images are collected with a 4× objective.
(§2) Sixteen-bit TIFF images are acquired and analyzed with MetaXpress 5.1.0.41 software. Cell proliferation is measured by the signal intensity of the incorporated nuclear dye. The cell proliferation assay output is referred to as the relative cell count. To determine the cell proliferation end point, the cell proliferation data output is transformed to percentage of control (POC) using the following formula: POC=relative cell count(compound wells)/relative cell count(vehicle wells)×100
(§3) GI50 is the concentration needed to reduce the observed growth by half. This is the concentration that inhibits the growth to the level midway between growth in untreated cells and the number of cells seeded in the well (Time zero value). The IC50 values are calculated using nonlinear regression to fit data to a sigmoidal 4 point, 4 parameter One-Site dose response model, where: y(fit)=A+[(B−A)/(1+((C/x)^D))].
as §1, with “In another experiment, cells were grown” for “Cells are grown”, “Cells were” for “Cells are”, “Compounds were” for “Compounds are”, “plate was” for “plate is”, “cells were” for “cells are”, “images were” for “images are”
as §2, with “images were” for “images are”, “proliferation was” for “proliferation is”, “output was” for “output is”
as §3, with “GI50 refers to” for “GI50 is”, “This corresponds to” for “This is”, “values were” for “values are”

[1] = JIYOYE, JIYOYE (Hematopoietic and lymphoid, Lymphoma)
[2] = JeKo-1, JEKO1 (Hematopoietic and lymphoid, Lymphoma)
[3] = Jurkat, JURKAT (Hematopoietic and lymphoid, Leukemia)
[4] = K562, K562 (Hematopoietic and lymphoid, Leukemia)
[5] = KATO III, 72 h, KATOIII, Stomach
[6] = KU812, KU812 (Hematopoietic and lymphoid, Leukemia)
[7] = L-428, L428 (Hematopoietic and lymphoid, Lymphoma)
[8] = MC116, MC116 (Hematopoietic and lymphoid, Lymphoma)
[9] = MC-IXC, 72 h, MCIXC, CNS, Neuroblastoma
[10] = ME-180, 72 h, ME180, Female GU, Ovary, 72 h
[11] = MEG-01, MEG01 (Hematopoietic and lymphoid, Leukemia)
[12] = MES-SA, 72 h, MESSA, Soft Tissue, Sarcoma
[13] = MG-63, 72 h, MG63, Soft Tissue, Osteosarcoma, 72 h
[14] = MHH-PREB-1, MHHPREB1 (Hematopoietic and lymphoid, Leukemia)
[15] = MIA PaCa-2, 72 h, MIAPACA2, Pancreas, 72 h
[16] = MOLT-3, MOLT3 (Hematopoietic and lymphoid, Leukemia)
[17] = MOLT-16, MOLT16 (Hematopoietic and lymphoid, Leukemia)
[18] = MV4-11, MV411 (Hematopoietic and lymphoid, Leukemia)
[19] = Malme-3M, MALME3M (Skin, Melanoma)
[20] = NALM-6, NALM6 (Hematopoietic and lymphoid, Leukemia)
[21] = NCI-H69, 72 h, NCIH69, Lung, SCLC, 72 h
[22] = NCI-H292, 72 h, NCIH292, Lung, NSCLC, 72 h
[23] = NCI-H295R, NCIH295R (Endocrine, Adrenal gland)

## C[C@]1(C(N)=O)CC[C@@H](n2c(Nc3c(Cl)cc(Cl)cc3Cl)nc3cnc(N[C@@H]4CCOC[C@H]4F)nc32)CC1 [Compound 1, cis-4-[2-{[(3S,4R)-3-fluorooxan-4-yl]amino}-8-(2,4,6-trichloroanilino)-9H-purin-9-yl]-1-methylcyclohexane-1-carboxamide]
[1]
  GI50: 0.0814 µM
  IC50: 0.21 µM
[2]
  GI50: 0.461 µM
  IC50: 0.83 µM
[3]
  GI50: 3.34 µM
  IC50: 3.73 µM
[4]
  GI50: > 10 µM
  IC50: > 10 µM
[5]
  GI50: 0.0612 µM
  IC50: 0.0787 µM
[6]
  GI50: 0.003 µM
  IC50: 0.0159 µM
[7]
  GI50: 1.63 µM
  IC50: 3.46 µM
LNCaP, 72 h, Prostate
  GI50: 2.43 µM
  IC50: 5.07 µM
LS174T, LS174T (Colon)
  GI50: 0.194 µM
  IC50: 0.259 µM
LS-123, LS123 (Colon)
  GI50: 0.061 µM
  IC50: 0.188 µM
LS-411N, LS411N (Colon)
  GI50: 0.0358 µM
  IC50: 0.053 µM
LS-513, LS513 (Colon)
  GI50: 0.0353 µM
  IC50: 0.0386 µM
LS-1034, LS1034 (Colon)
  GI50: 0.224 µM
  IC50: 0.676 µM
M059J, M059J (CNS, Glioma)
  GI50: 0.612 µM
  IC50: 3.31 µM
[8]
  GI50: 6.02 µM
  IC50: 6.49 µM
[9]
  GI50: 2.04 µM
  IC50: 2.33 µM
MCF7, MCF7 (Breast)
  GI50: 0.636 µM
  IC50: 3.47 µM
MDA-MB-231, MDAMB231 (Breast)
  GI50: 0.0339 µM
  IC50: 0.0624 µM
MDA-MB-415, MDAMB415 (Breast)
  GI50: 0.729 µM
  IC50: > 10 µM
MDA-MB-436, MDAMB436 (Breast)
  GI50: 0.262 µM
  IC50: > 10 µM
MDA-MB-453, MDAMB453 (Breast)
  GI50: 0.656 µM
  IC50: 2.82 µM
MDA-MB-468, MDAMB468 (Breast)
  GI50: 0.0363 µM
  IC50: 0.0721 µM
[10]
  GI50: > 10 µM
  IC50: > 10 µM
[11]
  GI50: 0.0818 µM
  IC50: 0.221 µM
[12]
  GI50: 0.81 µM
  IC50: 1.1 µM
[13]
  GI50: 0.108 µM
  IC50: 0.115 µM
[14]
  GI50: 6.69 µM
  IC50: 6.97 µM
[15]
  GI50: 0.0357 µM
  IC50: 0.0396 µM
[16]
  GI50: 0.946 µM
  IC50: 3.03 µM
[17]
  GI50: 2.88 µM
  IC50: 3.35 µM
[18]
  GI50: 0.107 µM
  IC50: 0.184 µM
[19]
  GI50: 0.0034 µM
  IC50: 0.012 µM
MeWo, MEWO (Skin, Melanoma)
  GI50: 0.102 µM
  IC50: 0.159 µM
[20]
  GI50: > 10 µM
  IC50: > 10 µM
[21]
  GI50: 5 µM
  IC50: > 10 µM
[22]
  GI50: 0.278 µM
  IC50: 0.686 µM
[23]
  GI50: > 10 µM
  IC50: > 10 µM
NCI-H441, 72 h, NCIH441, Lung, NSCLC, 72 h
  GI50: 0.271 µM
